From BindingDB's records for doi:10.1073/pnas.93.10.4661 (Amgen, 1996)

What was measured:
Pro-neuropeptide Y [1] = target: Pro-neuropeptide Y (Homo sapiens, UniProt P01303)
Pro-neuropeptide Y [2] = target: Pro-neuropeptide Y (Rattus norvegicus, UniProt P07808)

Molecule	Ki (Pro-neuropeptide Y [1])	Ki (Pro-neuropeptide Y [2])
CC[C@H](C)[C@H](NC(=O)[C@H](Cc1ccc(O)cc1)NC(=O)[C@H](CCCNC(=N)N)NC(=O)[C@H](CCCNC(=N)N)NC(=O)[C@H](CC(C)C)NC(=O)[C@H](CCC(N)=O)NC(=O)[C@@H](NC(=O)[C@H](CCC(=O)O)NC(=O)[C@H](Cc1ccc(O)cc1)NC(=O)[C@H](CCC(N)=O)NC(=O)[C@H](C)NC(=O)[C@H](CCCNC(=N)N)NC(=O)[C@H](CCC(N)=O)NC(=O)[C@H](CCC(=O)O)NC(=O)[C@H](Cc1c[nH]cn1)NC(=O)[C@@H](NC(=O)[C@H](C)NC(=O)[C@H](Cc1ccc(O)cc1)NC(=O)[C@H](CC(=O)O)NC(=O)CNC(=O)[C@@H]1CCCN1C(=O)[C@H](Cc1ccc(O)cc1)NC(=O)[C@H](CCSC)NC(=O)[C@@H]1CCCN1C(=O)[C@H](CCC(=O)O)NC(=O)[C@H](CC(C)C)NC(=O)[C@@H]1CCCN1C(=O)[C@H](C)N)[C@@H](C)O)[C@@H](C)O)C(=O)N[C@@H](CC(N)=O)C(=O)N[C@H](C(=O)N[C@@H](CC(C)C)C(=O)N[C@H](C(=O)N[C@@H](CCCNC(=N)N)C(=O)N1CCC[C@H]1C(=O)N[C@@H](CCCNC(=N)N)C(=O)N[C@@H](Cc1ccc(O)cc1)C(N)=O)[C@@H](C)O)[C@@H](C)O [NSC_41735]	139 nM	0.4 nM
CC[C@H](C)[C@H](NC(=O)[C@H](Cc1ccc(O)cc1)NC(=O)[C@H](CCCNC(=N)N)NC(=O)[C@H](CCCNC(=N)N)NC(=O)[C@H](CC(C)C)NC(=O)[C@H](CC(=O)O)NC(=O)[C@H](C)NC(=O)[C@H](C)NC(=O)[C@H](Cc1ccc(O)cc1)NC(=O)[C@H](CCC(N)=O)NC(=O)[C@H](C)NC(=O)[C@H](CCSC)NC(=O)[C@H](CCC(N)=O)NC(=O)[C@H](CCC(=O)O)NC(=O)[C@@H]1CCCN1C(=O)[C@@H](NC(=O)[C@H](C)NC(=O)[C@H](CC(N)=O)NC(=O)[C@H](CC(=O)O)NC(=O)CNC(=O)[C@@H]1CCCN1C(=O)[C@H](Cc1ccc(O)cc1)NC(=O)[C@@H](NC(=O)[C@@H]1CCCN1C(=O)[C@H](CCC(=O)O)NC(=O)[C@H](CC(C)C)NC(=O)[C@@H]1CCCN1C(=O)[C@H](C)N)C(C)C)[C@@H](C)O)C(=O)N[C@@H](CC(N)=O)C(=O)N[C@@H](CCSC)C(=O)N[C@@H](CC(C)C)C(=O)N[C@H](C(=O)N[C@@H](CCCNC(=N)N)C(=O)N1CCC[C@H]1C(=O)N[C@@H](CCCNC(=N)N)C(=O)N[C@@H](Cc1ccc(O)cc1)C(N)=O)[C@@H](C)O [CAS_59763-91-6]	1.9 nM	0.3 nM
H-APLEPEYPGDNATPEQMAQYAAELRRYINMLTRPRY-NH2 [CAS_59763-91-6]	2.3 nM	
